US20090036448A1, “PYRIMIDINE DERIVATIVES AND METHODS OF TREATMENT RELATED TO THE USE THEREOF” (TAISHO PHARMECUTICAL CO., LTD., priority 2004, published 2009)

What follows are compounds tested against MCH receptor (Homo sapiens, UniProt Q99705) (assay: Receptor binding assay with Radiolabelled MCH Ligand). Details: class by percent of control at 10^-7 M or IC50.
Chain of MCH receptor (Q99705 whole entry): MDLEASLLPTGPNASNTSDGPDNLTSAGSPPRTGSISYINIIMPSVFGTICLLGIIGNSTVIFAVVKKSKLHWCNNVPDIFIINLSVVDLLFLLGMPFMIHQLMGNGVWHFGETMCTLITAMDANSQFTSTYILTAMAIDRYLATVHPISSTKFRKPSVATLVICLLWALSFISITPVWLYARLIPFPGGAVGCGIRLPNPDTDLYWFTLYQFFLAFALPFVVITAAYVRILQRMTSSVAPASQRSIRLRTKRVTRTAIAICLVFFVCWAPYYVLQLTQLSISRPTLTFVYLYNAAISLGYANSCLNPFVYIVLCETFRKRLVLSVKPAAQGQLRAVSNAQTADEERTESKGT
Parameters: expressed in transfected cells; host or cells: 293 cells (human kidney, ATCC), transient transfection; crude membranes
Description: In addition to the methods described herein, another means for evaluating a test compound is by determining binding affinities to the MCH receptor. This type of assay generally requires a radiolabelled ligand to the MCH receptor. Absent the use of known ligands for the MCH receptor and radiolabels thereof, compounds of Formula (I) can be labelled with a radioisotope and used in an assay for evaluating the affinity of a test compound to the MCH receptor.
A radiolabelled MCH compound of Formula (I) can be used in a screening assay to identify/evaluate compounds. In general terms, a newly synthesized or identified compound (i.e., test compound) can be evaluated for its ability to reduce binding of the “radiolabelled compound of Formula (I)” to the MCH receptor. Accordingly, the ability to compete with the “radio-labelled compound of Formula (I)” or Radiolabelled MCH Ligand for the binding to the MCH receptor directly correlates to its binding affinity of the test compound to the MCH receptor.
293 cells (human kidney, ATCC), transiently transfected with 10 μg human MCH receptor and 60 μl Lipofectamine (per 15-cm dish), are grown in the dish for 24 hours (75% confluency) with a media change and removed with 10 mL/dish of Hepes-EDTA buffer (20 mM Hepes+10 mM EDTA, pH 7.4). The cells are then centrifuged in a Beckman Coulter centrifuge for 20 minutes, 17,000 rpm (JA-25.50 rotor). Subsequently, the pellet is resuspended in 20 mM Hepes+1 mM EDTA, pH 7.4 and homogenized with a 50-mL Dounce homogenizer and again centrifuged. After removing the supernatant, the pellets can be stored at −80° C., until used in binding assay. When used in the assay, membranes are thawed on ice for 20 minutes and then 10 mL of incubation buffer (20 mM Hepes, 1 mM MgCl2, 100 mM NaCl, pH 7.4) added. The membranes are then vortexed to resuspend the crude membrane pellet and homogenized with a Brinkmann PT-3100 Polytron homogenizer for 15 seconds at setting 6. The concentration of membrane protein is determined using the BRL Bradford protein assay.
For total binding, a total volume of 50 ul of appropriately diluted membranes (diluted in assay buffer containing 50 mM Tris HCl (pH 7.4), 1 mM MgCl2, and 1 mM EDTA; 5-50 ug protein) is added to 96-well polyproylene microtiter plates followed by addition of 100 μl of assay buffer and 50 μl of Radiolabelled MCH Ligand. For nonspecific binding, 50 μl of assay buffer is added instead of 100 μl and an additional 50 μl of 10 uM cold MCH is added before 50 μl of Radiolabelled MCH Ligand is added. Plates are then incubated at room temperature for 60-120 minutes. The binding reaction is terminated by filtering assay plates through a Microplate Devices GF/C Unifilter filtration plate with a Brandell 96-well plate harvester followed by washing with cold 50 mM Tris HCl, pH 7.4 containing 0.9% NaCl. Then, the bottom of the filtration plate are sealed, 50 ul of Optiphase Supermix is added to each well, the top of the plates are sealed, and plates are counted in a Trilux MicroBeta scintillation counter. For compound competition studies, instead of adding 100 μl of assay buffer, 100 μl of appropriately diluted test compound is added to appropriate wells followed by addition of 50 μl of Radiolabelled MCH Ligand.
The test compounds are initially assayed at 1 and 0.1 μM and then at a range of concentrations chosen such that the middle dose would cause about 50% inhibition of a Radiolabelled MCH Ligand binding (i.e., IC50). Specific binding in the absence of test compound (BO) is the difference of total binding (BT) minus non-specific binding (NSB) and similarly specific binding (in the presence of test compound) (B) is the difference of displacement binding (BD) minus non-specific binding (NSB). IC50 is determined from an inhibition response curve, logit-log plot of % B/BO vs. concentration of test compound.
Ki is calculated by the Cheng and Prustoff transformation: […]
`Cc1nc(N[C@H]2CC[C@@H](NC(=O)/C=C/c3ccccc3)CC2)cc(N(C)C)n1` [compound 210] was tested, and the class was 3 (Class 3: The value of percent of control at 10^−7 M was more than 60% or the value of IC50 was more than 200 nM.). In the case of `Cc1nc(N[C@H]2CC[C@@H](NC(=O)C3CC3)CC2)cc(N(C)C)n1` [compound 211], the class is reported as 3 (Class 3: The value of percent of control at 10^−7 M was more than 60% or the value of IC50 was more than 200 nM.). In the case of `Cc1nc(N[C@H]2CC[C@@H](NC(=O)C3CCCCC3)CC2)cc(N(C)C)n1` [compound 212], the class is reported as 3 (Class 3: The value of percent of control at 10^−7 M was more than 60% or the value of IC50 was more than 200 nM.). In the case of `Cc1nc(N[C@H]2CC[C@@H](NC(=O)Cc3ccc(Cl)cc3)CC2)cc(N(C)C)n1` [compound 213], the class is reported as 3 (Class 3: The value of percent of control at 10^−7 M was more than 60% or the value of IC50 was more than 200 nM.). With `Cc1nc(N[C@H]2CC[C@@H](NC(=O)C3(c4ccc(Cl)cc4)CCCC3)CC2)cc(N(C)C)n1` [compound 214] the class was 1 (Class 1: The value of percent of control at 10^−7 M was less than 40% or the value of IC50 was less than 50 nM.). In the case of `Cc1nc(N[C@H]2CC[C@@H](NC(=O)c3c(-c4c(F)cccc4Cl)noc3C)CC2)cc(N(C)C)n1` [compound 215, 3-(2-chloro-6-fluorophenyl)-N-(cis-4-{[6-(dimethylamino)-2-methylpyrimidin-4-yl]amino}cyclohexyl)-5-methylisoxazole-4-carboxamide], the class is reported as 1 (Class 1: The value of percent of control at 10^−7 M was less than 40% or the value of IC50 was less than 50 nM.). With `Cc1nc(N[C@H]2CC[C@@H](NC(=O)c3scc(S(=O)(=O)c4ccc(Cl)cc4)c3C)CC2)cc(N(C)C)n1` [compound 216] the class was 3 (Class 3: The value of percent of control at 10^−7 M was more than 60% or the value of IC50 was more than 200 nM.). With `Cc1nc(N[C@H]2CC[C@@H](NC(=O)c3ccc(N(C)C)cc3)CC2)cc(N(C)C)n1` [compound 217] the class was 3 (Class 3: The value of percent of control at 10^−7 M was more than 60% or the value of IC50 was more than 200 nM.). In the case of `Cc1nc(N[C@H]2CC[C@@H](NC(=O)c3ccc(F)c(F)c3)CC2)cc(N(C)C)n1` [compound 218, N-(cis-4-{[6-(dimethylamino)-2-methylpyrimidin-4-yl]amino}cyclohexyl)-3,4-difluorobenzamide], the class is reported as 1 (Class 1: The value of percent of control at 10^−7 M was less than 40% or the value of IC50 was less than 50 nM.). For `COc1ccc(C(=O)N[C@H]2CC[C@@H](Nc3cc(N(C)C)nc(C)n3)CC2)cc1OC` [compound 219], the class was 3 (Class 3: The value of percent of control at 10^−7 M was more than 60% or the value of IC50 was more than 200 nM.). For `CCOc1ccc(C(=O)N[C@H]2CC[C@@H](Nc3cc(N(C)C)nc(C)n3)CC2)cc1` [compound 220], the class was 3 (Class 3: The value of percent of control at 10^−7 M was more than 60% or the value of IC50 was more than 200 nM.). In the case of `Cc1nc(N[C@H]2CC[C@@H](NC(=O)c3ccc(F)cc3)CC2)cc(N(C)C)n1` [compound 221, N-(cis-4-{[6-(dimethylamino)-2-methylpyrimidin-4-yl]amino}cyclohexyl)-4-fluorobenzamide], the class is reported as 3 (Class 3: The value of percent of control at 10^−7 M was more than 60% or the value of IC50 was more than 200 nM.). `Cc1nc(N[C@H]2CC[C@@H](NC(=O)c3ccco3)CC2)cc(N(C)C)n1` [compound 222] was tested, and the class was 3 (Class 3: The value of percent of control at 10^−7 M was more than 60% or the value of IC50 was more than 200 nM.). `Cc1nc(N[C@H]2CC[C@@H](NC(=O)c3ccno3)CC2)cc(N(C)C)n1` [compound 223] was tested, and the class was 3 (Class 3: The value of percent of control at 10^−7 M was more than 60% or the value of IC50 was more than 200 nM.). With `Cc1nc(N[C@H]2CC[C@@H](NC(=O)c3ccccc3I)CC2)cc(N(C)C)n1` [compound 224] the class was 3 (Class 3: The value of percent of control at 10^−7 M was more than 60% or the value of IC50 was more than 200 nM.). `Cc1nc(N[C@H]2CC[C@@H](NC(=O)N3CCOCC3)CC2)cc(N(C)C)n1` [compound 225] was tested, and the class was 3 (Class 3: The value of percent of control at 10^−7 M was more than 60% or the value of IC50 was more than 200 nM.). In the case of `CSc1ncccc1C(=O)N[C@H]1CC[C@@H](Nc2cc(N(C)C)nc(C)n2)CC1` [compound 226], the class is reported as 3 (Class 3: The value of percent of control at 10^−7 M was more than 60% or the value of IC50 was more than 200 nM.). `COC(=O)c1ccc(C(=O)N[C@H]2CC[C@@H](Nc3cc(N(C)C)nc(C)n3)CC2)cc1` [compound 227] was tested, and the class was 3 (Class 3: The value of percent of control at 10^−7 M was more than 60% or the value of IC50 was more than 200 nM.). With `Cc1nc(N[C@H]2CC[C@@H](NC(=O)c3nn(-c4ccccc4)nc3C)CC2)cc(N(C)C)n1` [compound 228] the class was 3 (Class 3: The value of percent of control at 10^−7 M was more than 60% or the value of IC50 was more than 200 nM.). `Cc1nc(N[C@H]2CC[C@@H](NC(=O)c3snnc3C)CC2)cc(N(C)C)n1` [compound 229] was tested, and the class was 3 (Class 3: The value of percent of control at 10^−7 M was more than 60% or the value of IC50 was more than 200 nM.). `COc1ccc(Oc2ccc([N+](=O)[O-])cc2C(=O)N[C@H]2CC[C@@H](Nc3cc(N(C)C)nc(C)n3)CC2)cc1` [compound 230, N-(cis-4-{[6-(dimethylamino)-2-methylpyrimidin-4-yl]amino}cyclohexyl)-2-(4-methoxyphenoxy)-5-nitrobenzamide] was tested, and the class was 2 (Class 2: The value of percent of control at 10^−7 M was from 40% to 60% or the value of IC50 was from 50 nM to 200 nM.). In the case of `Cc1nc(N[C@H]2CC[C@@H](NC(=O)c3ccc4ccccc4c3)CC2)cc(N(C)C)n1` [compound 231], the class is reported as 3 (Class 3: The value of percent of control at 10^−7 M was more than 60% or the value of IC50 was more than 200 nM.). In the case of `Cc1nc(N[C@H]2CC[C@@H](NC(=O)c3cccc([N+](=O)[O-])c3)CC2)cc(N(C)C)n1` [compound 232, N-(cis-4-{[6-(dimethylamino)-2-methylpyrimidin-4-yl]amino}cyclohexyl)-3-nitrobenzamide], the class is reported as 3 (Class 3: The value of percent of control at 10^−7 M was more than 60% or the value of IC50 was more than 200 nM.). With `Cc1nc(N[C@H]2CC[C@@H](NC(=O)c3cnn(-c4ccc([N+](=O)[O-])cc4)c3C(F)(F)F)CC2)cc(N(C)C)n1` [compound 233] the class was 3 (Class 3: The value of percent of control at 10^−7 M was more than 60% or the value of IC50 was more than 200 nM.). In the case of `Cc1nc(N[C@H]2CC[C@@H](NC(=O)COc3ccccc3)CC2)cc(N(C)C)n1` [compound 234], the class is reported as 3 (Class 3: The value of percent of control at 10^−7 M was more than 60% or the value of IC50 was more than 200 nM.). In the case of `Cc1nc(N[C@H]2CC[C@@H](NC(=O)Cc3ccccc3)CC2)cc(N(C)C)n1` [compound 235], the class is reported as 3 (Class 3: The value of percent of control at 10^−7 M was more than 60% or the value of IC50 was more than 200 nM.). With `Cc1nc(N[C@H]2CC[C@@H](NC(=O)C3C[C@H]3c3ccccc3)CC2)cc(N(C)C)n1` (stereo partly shown) [compound 236] the class was 3 (Class 3: The value of percent of control at 10^−7 M was more than 60% or the value of IC50 was more than 200 nM.). For `Cc1nc(N[C@H]2CC[C@@H](NC(=O)c3ccc4c(c3)OCO4)CC2)cc(N(C)C)n1` [compound 237], the class was 3 (Class 3: The value of percent of control at 10^−7 M was more than 60% or the value of IC50 was more than 200 nM.).
